# Source: PubChem BioAssay (NCI)
#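 Interpolation was linear, between the two tested concentrations surrounding the appropriate level; five concentrations were tested over 48 hours in 96-well plates. At the GI50, growth is halved. At the TGI there is no net growth.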
# Experiments:
# Assay in all cases: growth of human tumour cells (NCI), 48 h
# BT-549 breast = test system: BT-549 breast
# U251 CNS = test system: U251 CNS
# RPMI-8226 leukemia = test system: RPMI-8226 leukemia
# OVCAR-8 ovarian = test system: OVCAR-8 ovarian
# SW-620 colon = test system: SW-620 colon
# K-562 leukemia = test system: K-562 leukemia
# RXF 393 renal = test system: RXF 393 renal
# UACC-257 melanoma = test system: UACC-257 melanoma
# HL-60(TB) leukemia = test system: HL-60(TB) leukemia
# SF-539 CNS = test system: SF-539 CNS
SMILES,TGI (BT-549 breast) [µM],TGI (U251 CNS) [µM],TGI (RPMI-8226 leukemia) [µM],TGI (OVCAR-8 ovarian) [µM],TGI (SW-620 colon) [µM],TGI (K-562 leukemia) [µM],TGI (RXF 393 renal) [µM],TGI (UACC-257 melanoma) [µM],TGI (HL-60(TB) leukemia) [µM],TGI (SF-539 CNS) [µM],GI50 (BT-549 breast) [µM],GI50 (U251 CNS) [µM],GI50 (RPMI-8226 leukemia) [µM],GI50 (OVCAR-8 ovarian) [µM],GI50 (SW-620 colon) [µM],GI50 (K-562 leukemia) [µM],GI50 (RXF 393 renal) [µM],GI50 (UACC-257 melanoma) [µM],GI50 (HL-60(TB) leukemia) [µM],GI50 (SF-539 CNS) [µM]
CC(=O)CC(OC(C)=O)C1=CCC2C(CC1C)OC(=O)C2C (centres undefined),> 100,> 100,> 100,> 100,> 100,> 100,> 100,> 100,> 100,> 100,–,–,–,–,–,–,–,–,–,–
C/C(=C\CBr)CCC(Br)C(C)(C)Br (centres undefined),> 100,> 100,> 100,> 100,> 100,> 100,> 100,> 100,> 100,> 100,–,–,–,–,–,–,–,–,–,–
O=C(Nc1ccc(Oc2ccc(Nc3nc4ccccc4s3)cc2)cc1)Nc1ccc(Cl)c(C(F)(F)F)c1,3.05,3.55,4.34,7.29,3.54,14.2,4,6.09,5.59,3.75,1.54,1.61,1.11,2.22,1.75,2.51,1.8,1.83,2.21,1.64
CCN1C(=O)N(c2ccccc2)C2NC(=S)N(/N=C/C=C/c3ccccc3OC)C21 (centres undefined),3.41,> 43.8,14.2,> 84.3,> 100,> 100,> 100,> 88.5,0.181,0.744,0.112,0.106,0.126,0.118,0.125,0.0662,0.916,3.44,0.0756,0.199
CC(=O)N(C(=O)CC(=O)N1N=C(c2ccccc2)C(N=Nc2ccccc2[N+](=O)[O-])C1=O)c1ccc(Cl)cc1 (centres undefined),> 10,> 10,> 10,> 10,> 10,> 10,> 10,> 10,> 10,> 10,–,–,–,–,–,–,–,–,–,–
COCCOc1ccc(-c2nc3ccc(-c4nc5ccc(N6CCN(C)CC6)cc5[nH]4)cc3[nH]2)cc1,3.96,10.2,35.5,23.4,4.59,> 100,3.63,5.92,91.8,2.83,1.76,0.659,4.11,0.931,0.9,0.911,1.8,1.71,1.62,1.22
O=[N+]([O-])c1ccc(Cl)cc1N/N=C/c1ccnc2ccccc12,> 100,> 100,> 100,> 100,> 100,> 100,> 100,> 100,> 100,49.5,–,–,–,–,–,–,–,–,–,–
CCCCCCCCCCn1cc[n+](C)c1,8.2,19.1,0.448,15.8,33,3.67,14.2,9.92,1.7,13.5,1.56,1.86,0.109,1.67,3.3,0.263,2.94,1.81,0.226,2.51
CN1CC[C@@H](NC(=O)Nc2ccc(C#N)cc2)C[C@@H]1c1nc2ccccc2[nH]1,> 100,> 100,> 100,> 100,> 100,> 100,> 100,> 100,> 100,> 100,> 100,> 100,> 100,> 100,> 100,> 100,40.5,> 100,> 100,> 100
COc1cccc(C(=O)NC(c2ccc(C)cc2)c2cc(Cl)c3cccnc3c2O)c1 (centres undefined),18.6,11.2,19.1,26.7,23.4,54.8,3.44,12.7,2.84,3.27,1.32,0.333,0.621,0.476,0.425,0.466,0.736,0.653,0.427,0.445
c1ccc(Sc2ncnc3ccccc23)cc1,22,31.8,37.6,75.9,34.8,> 100,27.1,34.7,27.9,34.2,5.42,12.9,9.49,19.8,14.6,9.72,13.4,11.9,6.37,15.9
Cc1ccc(-n2c3nc(=O)[nH]c(=O)c-3cc3cc([N+](=O)[O-])ccc32)cc1,27.8,> 100,21.3,> 100,> 100,> 100,> 100,70.9,> 100,40.8,6.49,5.14,3.95,38.6,4.71,33.4,49.9,26.7,3.98,13.9
Nc1n[nH]c2cc(F)c([C@@H]3Nc4ccc5[nH]ncc5c4[C@H]4C5CCC(C5)[C@@H]34)cc12 (some centres undefined),2.59,9.3,1.82,> 30.6,> 25,> 50,2.52,44.8,1.67,0.322,0.141,0.189,0.173,0.193,0.188,0.103,0.124,3.98,0.149,0.115
CN(C)CC1CC/C(=C\c2ccc(O)cc2)C1=O (centres undefined),3.73,12.5,4,14.6,5.33,5.76,4.8,11.3,2.91,17.1,–,–,–,–,–,–,–,–,–,–
COC[C@H]1Cn2cc(-c3nc(Nc4ccnn4C)ncc3C)nc2C(=O)N1Cc1ccc(F)c(F)c1,> 100,> 100,> 100,> 100,> 100,> 100,> 100,> 100,10.6,> 100,48.9,–,4.47,98.2,0.156,5.85,1.66,0.0352,0.471,27.1
COc1ccc2nc3cc(Cl)ccc3c(NCCNCC(C)O)c2c1 (centres undefined),21.8,4.62,6.36,7.65,10.3,10,3.37,3.73,6.05,3.51,7.92,1.99,2.54,1.94,0.818,1.28,1.61,2.14,1.9,1.65
O=C(O)c1ccc2c(c1C(=O)O)C(=O)OC2(c1ccc(O)cc1)c1ccc(O)cc1,> 100,> 100,> 100,> 100,> 100,> 100,> 100,> 100,> 100,> 100,–,–,–,–,–,–,–,–,–,–
O=C(CCCSc1nc(-c2ccccc2)cc(-c2ccccc2)n1)NO,17,3.2,9.38,18.3,12.7,18.9,3.05,6.71,6.39,7.09,2.66,1.24,0.808,0.484,0.777,0.983,0.525,1.77,2.48,1.92
Nc1n[nH]c2cccc(C#Cc3cccc(C(=O)Nc4ccc(CN5CCOCC5)c(C(F)(F)F)c4)c3)c12,6.03,15.2,5.62,8.18,12.7,> 100,3.44,10.6,5,3.47,2.14,2.75,1.76,2.54,2.89,0.0233,1.53,2.41,1.17,1.05
